{"source": "patent US11154536B2", "about": "“Pyrazoline-derived compound and its use in a weekly dosage regime against inflammation and pain derived from degenerative joint disease in mammals” (ECUPHAR N.V., priority 2014, dated 2021)", "key": {"[1]": {"assay": "Example 1: blood/plasma concentrations of E-6087 in treated dogs", "type": "in vivo, dog", "protocol": "(§1) According to the institutional ethics committee's recommendations, the first and third inoculations were done in the right stifle while the second and fourth inoculations were done in the left stifle. On each day of arthritis induction, the anti-inflammatory and analgesic efficacy of treatments was assessed at different time points (just before the inoculation, and 0.5, 1, 2, 3, 4, 6, 9 and 12 hours later). Two clinical signs of arthritis were assessed by using a scoring system at each time point: visual lameness (whilst standing and walking) and pain at (inoculated stifle) palpation. The median, minimal and maximal values for this parameter were determined for each group at each time point. Blood sampling was performed at different time points during the study in dogs of groups I and II in order to determine blood concentrations of E-6087."}, "[2]": {"test_system": "urate crystal induced acute arthritis in the stifle (femorotibial) joint", "assay": "Example 1: reversible urate crystal acute arthritis model in dog, E-6087 p.o. 4 mg/kg on D0 and D12", "type": "in vivo", "source_text": "(§2) The experimental model used in both studies was the same and it consists in the induction of an acute arthritis through the inoculation of an urate crystal suspension in the stifle (femorotibial) joint of dogs. […] Partial or total inhibition of this reaction at a given time point after treatment administration is attributable to its pharmacological effect.\n(§3) The reversible urate crystal arthritis model used in next examples has been previously described in the literature [Toutain P. L. et al. J. Vet. Pharmacol. Therap. 24, 43-55, 2001].\n(§4) A sodium urate crystal suspension at a concentration of 10 mg·mL-1 was prepared as follows: • Uric acid sodium salt (Sigma) was weighed in a 100 mL graduated flask. • 0.9% NaCl solution was added to a final volume of 100 mL. • The suspension was mixed at room temperature by vortexing for approximately 5 min, by magnetic stirring for 5 min and was then sonicated for approximately 1 h. • The suspension was distributed in 1.5 mL vials and then autoclaved for 2 h at 120° C. • Finally the suspension was mixed by vortexing for 5 min, and sonicated for approximately 1 h.\n(§5) The intra-articular injections were performed under general anaesthesia using Propovet multidose at a propofol dose of 6.5 mg.kg-1 by intravenous route without premedication. This induction medication was intended to result in a rapid onset anaesthesia with duration of about 10 minutes of unconsciousness and full recovery within approximately 30 minutes. For most of the dogs, Propovet multidose (half dose) was re-injected to maintain appropriate anaesthesia.\n(§6) All urate crystal injections were introduced in the stifle (femorotibial) joint. The intra-articular injection was performed under aseptic conditions using a 30 mm long and 1 mm diameter sterile needle and a 2.5 mL syringe. The joint was checked for successful joint puncture, by synovial aspiration. One millilitre of urate crystal suspension was used for each intra-articular injection.\n(§7) The duration of the induced inflammatory process was expected to be approximately 16 to 24 h and the average time of maximum lameness in untreated animals 2 to 3 hours after induction.\n(§8) To assess the anti-inflammatory and analgesic effect of the test item, two clinical signs of arthritis were investigated: lameness and pain, respectively. Their intensity was determined using the following scoring systems:\nThis study was designed to determine whether the blood levels of E-6087 achieved after one single oral dose of E-6087 at 4 mg/kg in dog, do have some short and/or long-term antiinflammatory and analgesic effects. In addition, a second dose of E-6087 at 4 mg/kg was administered to evaluate the eventual effect derived from the accumulation of the molecule in blood.\nThe study was performed with seven male Beagle dogs randomly allocated to 3 groups.\nDuring the study, the arthritis induction model was implemented on four occasions to each dog: • In dogs of Group I, on Days 0*, 7, 14** and 21. • In dogs of Group II, on Days 2**, 7, 14** and 21. • In dogs of Group III, on […].\nas §1"}, "[3]": {"test_system": "urate crystal induced acute arthritis in the stifle (femorotibial) joint", "assay": "Example 2: urate crystal acute arthritis model in dogs, loading dose plus weekly maintenance doses of E-6087", "type": "in vivo, dog", "source_text": "as §2, §3, §4, §5, §6, §7, §8\nThis study was designed to evaluate the effectiveness of two different treatment regimes for E-6087. In both cases it was administered a loading dose, followed by a weekly maintenance dose. […]\nAccording to the institutional ethics committee's recommendations, the first and third inoculations were performed in the right stifle while the second inoculation was performed in the left stifle. On each day of arthritis induction, the anti-inflammatory and analgesic efficacy of treatments was assessed at different time points (just before the inoculation, and 0.5, 1, 2, 3, 4, 6, 9 and 12 hours later).\nTwo clinical signs of arthritis were assessed by using a scoring system at each time point: visual lameness (whilst standing and walking) and pain at (inoculated stifle) palpation. A combined visual lameness score, determined as the sum of the standing and walking lameness scores, was calculated and finally used for efficacy evaluation. The median, minimal and maximal values for this parameter were determined for each group at each time point. […]"}, "[4]": {"test_system": "naturally occurring osteoarthritis", "assay": "Example 3: randomized, blinded multi-centre clinical trial in dogs with naturally occurring osteoarthritis (Clinical Sum Score)", "type": "in vivo, dog", "conditions": "loading dose 4 mg/kg then 2 mg/kg weekly; for P of reduction in CSS compared to the Placebo group: tablets", "protocol": "One study (headed as example 3) has been performed to evaluate the efficacy of E-6087 in dogs with naturally occurring osteoarthritis under real field conditions. E-6087 was administered in tablets.\nFor a dog to be included in the study, the following criteria must be fulfilled: • 1. Owner's consent obtained prior to the start of any study activities. • 2. Age ≥12 months. • 3. Body weight ≥5 kg. • 4. Clinical signs of osteoarthritis for one (with the exception of the spine including spinal joints, cranium, and vertebral column) or more joints for at least 3 weeks. • 5. Confirmation by radiographic evidence of the presence of osteoarthritis in the dog. […] Minimum Clinical Sum Score (CSS) ≥6. If more than one joint was affected by OA, the most severely affected joint (with the exception of the spine) was assessed subsequently for efficacy.\nOnce included, dogs were randomly assigned to a treatment group. A practitioner was in charge of administering either a Placebo or E-6087 under two different dosage regimes to animals, while another one was in charge of blindly evaluating the progression of clinical signs during a 42-day follow-up.\nA Clinical Sum Score (CSS) was used for the assessment of pain and lameness at several time points during the follow-up, including clinical assessments in this order for posture, lameness at walk, lameness at rot and pain at palpation/manipulation. The CSS was the sum of the individual scores.\nThis study was designed to evaluate the effectiveness of E-6087 under real field conditions. E-6087 was administered at a loading dose of 4 mg/kg followed by weekly maintenance doses of 2 mg/kg The study was designed as a controlled, randomized, blinded, multi-centre clinical trial.\nA total of 60 osteoarthritic dogs were included in the E-6087 group and 60 dogs in the Placebo group. All dogs underwent a follow-up period of 42 days, with clinical evaluations of lameness and pain on days 0, 7, 14, 28 and 42. A Clinical Sum Score (CSS) was calculated for the lameness and pain parameters at each time point."}, "[5]": {"conditions": "induction on day D7 after the first 4 mg/kg p.o. dose"}, "[6]": {"conditions": "induction two hours after the first 4 mg/kg p.o. dose (Day 0)"}, "[7]": {"conditions": "inductions on D14 and D21, after the second 4 mg/kg dose on D12"}}, "data": [{"smiles": "NS(=O)(=O)c1ccc(N2N=C(C(F)(F)F)CC2c2ccc(F)cc2F)cc1", "note": "(racemic) [E-6087]", "values": [{"measurement": "Plasma levels after the second dose", "setting": "[1]; 4 mg/kg p.o. on D0 and D12, blood samples of treated dogs", "value": "increase in plasma levels"}, {"measurement": "Blood levels 48 hours after administration", "setting": "[1]; 4 mg/kg p.o., 48 hours after administration", "value": "significant blood levels"}, {"measurement": "Adverse reactions related to the administration", "setting": "[2]; 4 mg/kg p.o. on D0 and D12, throughout the 28-day study", "value": "No adverse reactions"}, {"measurement": "Persistence of anti-inflammatory/analgesic effect", "setting": "[2]; after the second dose of 4 mg/kg (12 days after the first dose)", "value": "persisted at least during nine days"}, {"measurement": "Lameness assessment (control of induced lameness)", "setting": "[2]; [5]", "value": "slightly controlled"}, {"measurement": "Pain assessment (control of induced pain at palpation)", "setting": "[2]; [5]", "value": "slightly controlled"}, {"measurement": "Lameness assessment (control of induced lameness)", "setting": "[2]; [6]", "value": "not controlled at all"}, {"measurement": "Pain assessment (control of induced pain at palpation)", "setting": "[2]; [6]", "value": "not controlled at all"}, {"measurement": "Lameness assessment (control of induced lameness)", "setting": "[2]; [7]", "value": "absolutely controlled"}, {"measurement": "Pain assessment (control of induced pain at palpation)", "setting": "[2]; [7]", "value": "absolutely controlled"}, {"measurement": "Inflammatory/painful reaction after arthritis induction", "setting": "[3]; Group C, treatment regimen II (8 mg/kg loading, 4 mg/kg weekly), from Day 9 onwards", "value": "very mild reaction"}, {"measurement": "Inflammatory/painful reaction after arthritis induction", "setting": "[3]; Group C, treatment regimen II, induction on Day 0, two hours after the 8 mg/kg loading dose", "value": "severe inflammatory/painful reaction"}, {"measurement": "Inflammatory/painful reaction after arthritis induction", "setting": "[3]; Groups A and B, treatment regimen I (4 mg/kg Days 0 and 1, then 4 mg/kg weekly), inductions on Days 2, 4 and 9", "value": "mild inflammatory/painful reactions"}, {"measurement": "Inflammatory/painful reaction after arthritis induction", "setting": "[3]; Groups A and B, treatment regimen I, inductions on Days 14, 23 and 28", "value": "none (or very mild) reactions"}, {"measurement": "Adverse reactions related to the administration", "setting": "[3]; Groups A, B and C, throughout the study", "value": "No adverse reactions"}, {"measurement": "P of reduction in CSS compared to the Placebo group", "setting": "[4]; day 28, statistically significant", "value": "< 0.05"}, {"measurement": "P of reduction in CSS compared to the Placebo group", "setting": "[4]; day 42, highly significant", "value": "< 0.01"}, {"measurement": "Mean Clinical Sum Score (CSS)", "setting": "[4]; dropped under the threshold between day 7 and day 14", "value": "< 6"}]}]}
